Series [1] concerns the target T1, Muscarinic acetylcholine receptor M4 (Homo sapiens) (UniProt P08173).
T1 sequence (whole entry): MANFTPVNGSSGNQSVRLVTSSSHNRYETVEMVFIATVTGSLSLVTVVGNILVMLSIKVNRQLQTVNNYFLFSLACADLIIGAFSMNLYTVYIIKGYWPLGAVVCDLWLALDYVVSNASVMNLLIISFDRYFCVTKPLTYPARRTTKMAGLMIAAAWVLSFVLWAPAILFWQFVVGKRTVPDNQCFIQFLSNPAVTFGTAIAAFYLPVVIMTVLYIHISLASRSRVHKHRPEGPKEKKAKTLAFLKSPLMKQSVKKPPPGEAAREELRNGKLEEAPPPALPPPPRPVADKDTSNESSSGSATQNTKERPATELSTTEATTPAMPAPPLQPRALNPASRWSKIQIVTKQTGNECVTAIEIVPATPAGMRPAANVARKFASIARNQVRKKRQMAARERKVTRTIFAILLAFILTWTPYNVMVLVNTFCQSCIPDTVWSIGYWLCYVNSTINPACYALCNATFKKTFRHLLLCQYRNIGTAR
As to the kind of experiment: Activity at muscarinic M4 receptor expressing in CHONFAT cells assessed as potentiation of acetylcholine-induced calcium mobilization preincubated for 4 mins and measured 4 mins after acetylcholine stimulation by FLIPR assay. It is filed as functional, cell-based.

Series [2] addresses Muscarinic acetylcholine receptor M3 (Homo sapiens) (UniProt P20309). The experiment in a line: Activity at muscarinic M3 receptor expressing in CHONFAT cells assessed as potentiation of acetylcholine-induced calcium mobilization preincubated for 4 mins and measured 4 mins after acetylcholine stimulation by FLIPR assay. It is filed as functional, cell-based. (In general: A change in cytosolic calcium serves as a functional read-out for many receptors and channels.)

For series [3], the target named is T2, Muscarinic acetylcholine receptor M2 (Homo sapiens) (UniProt P08172).
T2 sequence (whole entry): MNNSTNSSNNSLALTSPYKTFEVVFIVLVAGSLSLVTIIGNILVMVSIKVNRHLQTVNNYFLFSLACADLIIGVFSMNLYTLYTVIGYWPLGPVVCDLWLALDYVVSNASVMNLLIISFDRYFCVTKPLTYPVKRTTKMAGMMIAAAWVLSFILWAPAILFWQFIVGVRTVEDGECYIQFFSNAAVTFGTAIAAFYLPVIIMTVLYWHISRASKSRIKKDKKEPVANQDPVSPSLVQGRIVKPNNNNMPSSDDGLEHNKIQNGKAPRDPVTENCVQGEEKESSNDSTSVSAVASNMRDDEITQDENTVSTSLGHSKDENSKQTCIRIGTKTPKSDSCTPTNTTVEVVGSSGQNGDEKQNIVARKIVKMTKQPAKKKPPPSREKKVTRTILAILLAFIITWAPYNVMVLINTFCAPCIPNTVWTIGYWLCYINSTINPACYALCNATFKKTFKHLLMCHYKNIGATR
The experiment in a line: Activity at muscarinic M2 receptor expressing in CHONFAT cells assessed as potentiation of acetylcholine-induced calcium mobilization preincubated for 4 mins and measured 4 mins after acetylcholine stimulation by FLIPR assay. It is filed as functional, cell-based.

For series [4], the target named is T3, Muscarinic acetylcholine receptor M1 (Homo sapiens) (UniProt P11229).
T3 sequence (whole entry): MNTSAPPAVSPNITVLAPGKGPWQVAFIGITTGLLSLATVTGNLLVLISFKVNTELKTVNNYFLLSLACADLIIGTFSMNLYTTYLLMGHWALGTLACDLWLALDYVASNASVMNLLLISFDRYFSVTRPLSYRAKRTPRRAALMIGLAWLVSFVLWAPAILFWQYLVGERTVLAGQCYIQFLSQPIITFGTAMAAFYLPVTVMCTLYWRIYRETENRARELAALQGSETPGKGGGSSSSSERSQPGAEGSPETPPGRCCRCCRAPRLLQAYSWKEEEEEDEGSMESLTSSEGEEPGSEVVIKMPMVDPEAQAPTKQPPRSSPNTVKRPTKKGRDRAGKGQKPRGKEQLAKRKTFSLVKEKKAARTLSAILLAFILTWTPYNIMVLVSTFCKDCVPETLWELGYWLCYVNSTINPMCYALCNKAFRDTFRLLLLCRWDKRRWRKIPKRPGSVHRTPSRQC
The experiment in a line: Positive allosteric modulation of human muscarinic M1 receptor expressing in CHONFAT cells assessed as potentiation of acetylcholine-induced calcium mobilization preincubated for 4 mins and measured 4 mins after acetylcholine stimulation by FLIPR assay. The class given is functional, cell-based.

Series [5] in a line: Protein binding in rat plasma. It is filed as ADME, cell-free. The conditions noted are these: read-out: PPB (converted).
Series [6] can be described thus: Protein binding in human plasma. The class given is ADME, cell-free. Conditions: read-out: PPB (converted).
Series [7] can be described thus: Passive permeability across MDCK cells. It is filed as ADME, cell-based, Canis lupus familiaris. Conditions: dog.
Series [8] deals with MDR1a (P-gp, ABCB1) (Rattus norvegicus, UniProt P43245). As to the kind of experiment: in vitro. Conditions: not told.
Description: Efflux ratio assessed as rat MDR1a-mediated directional transport ratio from basolateral to apical over apical to basolateral by cell based assay
Series [9] deals with MDR1 (P-gp, ABCB1) (Homo sapiens, UniProt P08183). The experiment in a line: in vitro. The conditions noted are these: not told.
Description: Efflux ratio assessed as human MDR1-mediated directional transport ratio from basolateral to apical over apical to basolateral by cell based assay

Experimental findings from ChEMBL document CHEMBL2203078, “Identification of amides as carboxylic Acid surrogates for quinolizidinone-based m1 positive allosteric modulators” (ACS Med Chem Lett, 2012) are described below.

Active and inactive are the calls of the source. The rule behind the calls is not given here.

Chain of Muscarinic acetylcholine receptor M3 (Homo sapiens) (P20309 whole entry, looked up): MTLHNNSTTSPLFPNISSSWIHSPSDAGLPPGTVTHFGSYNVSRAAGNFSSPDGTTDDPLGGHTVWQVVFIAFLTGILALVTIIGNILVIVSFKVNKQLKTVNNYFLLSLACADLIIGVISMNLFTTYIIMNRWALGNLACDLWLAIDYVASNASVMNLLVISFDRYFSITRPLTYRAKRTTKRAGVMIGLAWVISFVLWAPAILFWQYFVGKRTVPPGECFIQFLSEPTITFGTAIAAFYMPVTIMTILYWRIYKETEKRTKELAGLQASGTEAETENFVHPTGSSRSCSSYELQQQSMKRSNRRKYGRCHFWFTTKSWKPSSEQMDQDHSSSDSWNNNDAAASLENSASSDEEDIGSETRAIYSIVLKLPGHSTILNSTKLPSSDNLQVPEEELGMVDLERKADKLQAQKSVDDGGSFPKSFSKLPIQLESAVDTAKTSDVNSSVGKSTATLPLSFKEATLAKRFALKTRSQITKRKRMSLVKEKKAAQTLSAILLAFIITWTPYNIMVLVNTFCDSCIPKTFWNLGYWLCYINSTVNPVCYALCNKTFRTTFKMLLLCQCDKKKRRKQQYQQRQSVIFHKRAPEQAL
Chain of MDR1 (P-gp, ABCB1) (P08183 whole entry): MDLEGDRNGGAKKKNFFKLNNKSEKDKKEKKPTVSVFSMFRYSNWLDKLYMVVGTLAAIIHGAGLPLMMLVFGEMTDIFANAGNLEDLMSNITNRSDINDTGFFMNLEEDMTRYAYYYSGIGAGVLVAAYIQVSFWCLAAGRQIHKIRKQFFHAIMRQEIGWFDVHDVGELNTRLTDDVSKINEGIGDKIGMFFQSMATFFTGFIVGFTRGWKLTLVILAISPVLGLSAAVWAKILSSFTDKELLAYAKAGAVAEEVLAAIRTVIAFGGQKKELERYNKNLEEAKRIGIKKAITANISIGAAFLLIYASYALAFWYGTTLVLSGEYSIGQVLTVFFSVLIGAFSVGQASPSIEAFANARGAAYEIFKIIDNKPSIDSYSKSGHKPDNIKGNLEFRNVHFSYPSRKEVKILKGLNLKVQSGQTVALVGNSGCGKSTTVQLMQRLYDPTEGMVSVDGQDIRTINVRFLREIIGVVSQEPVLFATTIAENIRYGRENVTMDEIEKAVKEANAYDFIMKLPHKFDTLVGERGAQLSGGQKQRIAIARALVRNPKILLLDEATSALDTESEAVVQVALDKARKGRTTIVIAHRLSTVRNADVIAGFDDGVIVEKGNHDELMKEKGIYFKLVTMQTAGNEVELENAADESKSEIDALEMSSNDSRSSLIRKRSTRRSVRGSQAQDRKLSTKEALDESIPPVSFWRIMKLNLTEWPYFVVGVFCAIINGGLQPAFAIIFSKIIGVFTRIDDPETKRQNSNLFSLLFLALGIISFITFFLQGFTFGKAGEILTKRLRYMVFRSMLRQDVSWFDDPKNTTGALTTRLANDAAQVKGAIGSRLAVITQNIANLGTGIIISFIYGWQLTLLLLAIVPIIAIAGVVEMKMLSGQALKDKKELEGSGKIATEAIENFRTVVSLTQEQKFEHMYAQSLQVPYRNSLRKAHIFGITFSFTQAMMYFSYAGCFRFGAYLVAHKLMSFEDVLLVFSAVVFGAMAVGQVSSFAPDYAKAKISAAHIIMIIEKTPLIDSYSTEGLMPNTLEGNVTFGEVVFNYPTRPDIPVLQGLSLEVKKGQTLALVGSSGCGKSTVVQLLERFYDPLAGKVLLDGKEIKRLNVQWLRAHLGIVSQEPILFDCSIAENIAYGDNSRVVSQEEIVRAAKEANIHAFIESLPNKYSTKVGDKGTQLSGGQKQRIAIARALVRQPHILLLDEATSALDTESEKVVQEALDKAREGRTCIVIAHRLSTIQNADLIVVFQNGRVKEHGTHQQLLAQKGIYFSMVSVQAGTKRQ
Chain of MDR1a (P-gp, ABCB1) (P43245 whole entry): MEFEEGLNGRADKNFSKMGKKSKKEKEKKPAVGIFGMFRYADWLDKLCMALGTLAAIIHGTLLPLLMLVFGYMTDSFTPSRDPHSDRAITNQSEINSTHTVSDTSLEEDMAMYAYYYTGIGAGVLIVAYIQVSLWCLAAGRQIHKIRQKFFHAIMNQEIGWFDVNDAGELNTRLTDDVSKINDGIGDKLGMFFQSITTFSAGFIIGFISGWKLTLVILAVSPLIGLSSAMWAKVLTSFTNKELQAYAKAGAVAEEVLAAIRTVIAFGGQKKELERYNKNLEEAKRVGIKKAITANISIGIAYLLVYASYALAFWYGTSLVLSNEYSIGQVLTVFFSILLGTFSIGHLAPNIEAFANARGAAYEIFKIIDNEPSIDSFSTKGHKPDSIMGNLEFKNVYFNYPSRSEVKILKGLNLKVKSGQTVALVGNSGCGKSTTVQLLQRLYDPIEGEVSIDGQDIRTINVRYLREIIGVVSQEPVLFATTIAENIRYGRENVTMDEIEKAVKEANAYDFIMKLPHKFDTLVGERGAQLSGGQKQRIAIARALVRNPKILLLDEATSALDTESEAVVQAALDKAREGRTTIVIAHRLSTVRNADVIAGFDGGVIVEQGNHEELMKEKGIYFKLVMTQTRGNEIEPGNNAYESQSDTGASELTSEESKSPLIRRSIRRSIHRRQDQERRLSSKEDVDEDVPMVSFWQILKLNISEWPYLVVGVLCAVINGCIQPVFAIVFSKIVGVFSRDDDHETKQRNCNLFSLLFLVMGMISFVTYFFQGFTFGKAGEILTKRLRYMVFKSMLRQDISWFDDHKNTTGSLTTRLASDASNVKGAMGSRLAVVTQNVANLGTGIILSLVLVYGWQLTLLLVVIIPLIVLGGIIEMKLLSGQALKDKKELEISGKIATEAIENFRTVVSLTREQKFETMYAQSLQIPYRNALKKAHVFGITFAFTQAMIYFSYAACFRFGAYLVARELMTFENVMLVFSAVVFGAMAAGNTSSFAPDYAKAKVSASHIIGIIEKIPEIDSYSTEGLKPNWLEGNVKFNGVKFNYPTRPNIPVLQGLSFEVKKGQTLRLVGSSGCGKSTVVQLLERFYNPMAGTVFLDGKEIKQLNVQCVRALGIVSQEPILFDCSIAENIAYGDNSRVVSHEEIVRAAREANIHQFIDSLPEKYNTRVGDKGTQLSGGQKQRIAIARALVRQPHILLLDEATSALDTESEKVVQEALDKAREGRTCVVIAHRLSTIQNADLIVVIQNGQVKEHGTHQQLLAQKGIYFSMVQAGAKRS

For `Cc1cccc2c1N(C(=O)c1cc(CN3CCC(C#N)(c4ccccn4)CC3)c3ccccn3c1=O)CCC2`, the outcome in series [1], in series [2] and in series [3] was inactive. Further, in series [4], the IP stood at 4400 nM.

As for `N#CC1(c2ccccn2)CCN(Cc2cc(C(=O)N[C@@H]3CCCC[C@H]3O)c(=O)n3ccccc23)CC1`, the result in series [1], in series [2] and in [3] was inactive. In series [4], the IP is 220 nM.

Take `Cn1cc(NC(=O)c2cc(CN3CCC(C#N)(c4ccccn4)CC3)c3ccccn3c2=O)nn1`: the result in series [1], in series [2] and in series [3] was inactive. For the same compound, in series [4], the IP is 1300 nM.

`CS[C@H]1CCCC[C@@H]1NC(=O)c1cc(CN2CCC(C#N)(c3ccccn3)CC2)c2ccccn2c1=O`: the outcome in series [1], in series [2] and in series [3] was inactive. Moreover, in [4], the IP was 177 nM.

As for `COc1ccc(Cn2cc(C(=O)NC3CCCCC3)c(=O)c3ccccc32)cc1`, the outcome in series [1], in series [2] and in [3] was inactive. For the same compound, the IP in series [4] was determined as 14000 nM.

Take `CO[C@H]1CCCC[C@@H]1NC(=O)c1cc(CN2CCC(C#N)(c3ccccn3)CC2)c2ccccn2c1=O`: the result in series [1], in [2] and in series [3] was inactive. Further, the IP in [4] was 381 nM.

On to `N#CC1(c2ccccn2)CCN(Cc2cc(C(=O)N3CCCC3)c(=O)n3ccccc23)CC1`, for which the outcome in [1], in [2] and in [3] was inactive. For the same compound, in series [4], the IP was 23000 nM.

Take `CNC(=O)c1cc(CN2CCC(C#N)(c3ccccn3)CC2)c2ccccn2c1=O`: the result in series [1], in series [2] and in [3] was inactive. The IP in [4] is 4300 nM.

As to `C[C@H]1CCCC[C@@H]1NC(=O)c1cc(CN2CCC(C#N)(c3ccccn3)CC2)c2ccccn2c1=O`, the result in series [1], in [2] and in [3] was inactive. For the same compound, the IP in series [4] is 190 nM.

On to `N#CC1(c2ccccn2)CCN(Cc2cc(C(=O)NC3CCCOC3)c(=O)n3ccccc23)CC1` (centres undefined), for which the result in series [1], in [2] and in series [3] was inactive. Further, the IP in [4] turned out to be 2600 nM.

What is called Papp is a coefficient for how fast a substance crosses the barrier. As for `Cc1ccc(N2CCN(Cc3cc(C(=O)N[C@H]4CCCC[C@@H]4O)c(=O)n4ccccc34)CC2)nc1`, the fraction unbound in series [5] was 0.287; in [6], 0.399. The compound also registered a Papp in [7] of 23 ×10⁻⁶ cm/s. Besides, the outcome in series [1], in series [2] and in series [3] was inactive. In addition, the IP in series [4] is 174 nM.

For the compound `N#CC1(c2ccccn2)CCN(Cc2cc(C(=O)NC3CCCC3)c(=O)n3ccccc23)CC1`, the outcome in series [1], in series [2] and in series [3] was inactive. Besides, the IP in [4] amounted to 780 nM.

Take `N#CC1(c2ccccn2)CCN(Cc2cc(C(=O)N[C@H]3CCCC[C@@H]3O)c(=O)n3ccccc23)CC1`: the figures for the fraction unbound in series [5] and in series [6] were 0.14 and 0.48, respectively. This compound also displayed an apparent permeability coefficient (Papp) in [7] of 29 ×10⁻⁶ cm/s. Further, the result in series [1], in [2] and in series [3] was inactive. For the same compound, the IP in series [4] came out at 31 nM.

For the compound `N#CC1(c2ccccn2)CCN(Cc2cc(C(=O)NC3CCC3)c(=O)n3ccccc23)CC1`, the outcome in series [1], in series [2] and in series [3] was inactive. Further, the IP in [4] amounted to 980 nM.

As to `COc1ccc(Cn2cc(C(=O)Nc3ccccc3C)c(=O)c3ccccc32)cc1`, the result in series [1], in series [2] and in series [3] was inactive. Moreover, in [4], the IP was determined as 23000 nM.

Regarding `N#CC1(c2ccccn2)CCN(Cc2cc(C(=O)Nc3ccccn3)c(=O)n3ccccc23)CC1`, the result in series [1], in series [2] and in series [3] was inactive. For the same compound, the IP in series [4] stood at 640 nM.

On to `N#CC1(c2ccccn2)CCN(Cc2cc(C(=O)N3CCCc4ccccc43)c(=O)n3ccccc23)CC1`, for which the outcome in series [1], in series [2] and in series [3] was inactive. The IP in series [4] came out at 7800 nM.

`N#CC1(c2ccccn2)CCN(Cc2cc(C(N)=O)c(=O)n3ccccc23)CC1`: the outcome in series [1], in series [2] and in series [3] was inactive. Also, in series [4], the IP amounted to 1900 nM.

As to `N#CC1(c2ccccn2)CCN(Cc2cc(C(=O)NC3CCSCC3)c(=O)n3ccccc23)CC1`, the result in series [1], in series [2] and in series [3] was inactive. Also, the IP in series [4] is 344 nM.

Take `CN(C(=O)c1cc(CN2CCC(C#N)(c3ccccn3)CC2)c2ccccn2c1=O)C1CCOCC1`: the result in [1], in series [2] and in series [3] was inactive. In series [4], the IP worked out at 4400 nM.

Broadly, the efflux ratio is the permeability from basolateral to apical divided by that in the opposite direction, in the common usage. On to `C[C@@]1(NC(=O)c2cc(CN3CCC(C#N)(c4ccccn4)CC3)c3ccccn3c2=O)CCCC[C@H]1O`, for which the apparent permeability coefficient (Papp) in series [7] was found to be 28 ×10⁻⁶ cm/s. Besides, the result in series [1], in [2] and in series [3] was inactive. For the same compound, the IP in series [4] is greater than 20000 nM. For the same compound, the results for the efflux ratio in [8] and in series [9] were 12 and 10, respectively.

With `C[C@@]1(O)CCCC[C@H]1NC(=O)c1cc(CN2CCC(C#N)(c3ccccn3)CC2)c2ccccn2c1=O`, the result in series [1], in series [2] and in series [3] was inactive. Besides, the IP in [4] was 93 nM.

For the compound `Cc1ccccc1NC(=O)c1cc(CN2CCC(C#N)(c3ccccn3)CC2)c2ccccn2c1=O`, the outcome in [1], in series [2] and in [3] was inactive. Further, the IP in [4] is 2400 nM.

`N#CC1(c2ccccn2)CCN(Cc2cc(C(=O)NC3CC3)c(=O)n3ccccc23)CC1`: the outcome in series [1], in [2] and in series [3] was inactive. The IP in series [4] is 2200 nM.

For the compound `N#CC1(c2ccccn2)CCN(Cc2cc(C(=O)NC3CCCCCC3)c(=O)n3ccccc23)CC1`, the outcome in series [1], in [2] and in [3] was inactive. The IP in series [4] is 304 nM.
